# In ChEMBL document CHEMBL1687765, “NagZ inactivation prevents and reverts beta-lactam resistance, driven by AmpD and PBP 4 mutations, in Pseudomonas aeruginosa” (2010):
# What was measured:
# Assay type in all cases: functional
# [1] = test system: Pseudomonas aeruginosa; assay: Induction of creD mRNA in ampD::lox and nagZ::lox gene-deficient Pseudomonas aeruginosa PAO1 at 50 ug/ml by RT-PCR relative to wild type Pseudomonas aeruginosa PAO1 (reference value: 1.9 +/- 1.3 no unit) harboring dacB gene
# [2] = test system: Pseudomonas aeruginosa; assay: Induction of creD mRNA in ampD::lox, ampDh2::lox and ampDh3::lox gene-deficient Pseudomonas aeruginosa PAO1 at 50 ug/ml by RT-PCR relative to wild type Pseudomonas aeruginosa PAO1 (reference value: 1.3 +/- 0.3 no unit)
# [3] = test system: Pseudomonas aeruginosa; assay: Induction of creD mRNA in ampD::lox, ampDh2::lox,ampDh3::lox and nagZ::lox gene-deficient Pseudomonas aeruginosa PAO1 at 50 ug/ml by RT-PCR relative to wild type Pseudomonas aeruginosa PAO1 (reference value: -1.4 +/- 0.1 no unit)
# [4] = test system: Pseudomonas aeruginosa; assay: Induction of creD mRNA in ampR::lox gene-deficient Pseudomonas aeruginosa PAO1 at 50 ug/ml by RT-PCR relative to wild type Pseudomonas aeruginosa PAO1 (reference value: 1.6 +/- 0.1 no unit)
# [5] = test system: Pseudomonas aeruginosa; assay: Induction of ampC mRNA in Pseudomonas aeruginosa PAO1 at 50 ug/ml by RT-PCR relative to wild type Pseudomonas aeruginosa PAO1 (reference value: 1 no unit)
# [6] = test system: Pseudomonas aeruginosa; assay: Induction of ampC mRNA in nagZ::lox gene-deficient Pseudomonas aeruginosa PAO1 at 50 ug/ml by RT-PCR relative to wild type Pseudomonas aeruginosa PAO1 (reference value: -2.1 +/- 1.5 no unit)
# [7] = test system: Pseudomonas aeruginosa; assay: Induction of ampC mRNA in ampD::lox gene-deficient Pseudomonas aeruginosa PAO1 at 50 ug/ml by RT-PCR relative to wild type Pseudomonas aeruginosa PAO1 (reference value: 47 +/-9.5 no unit)
# [8] = test system: Pseudomonas aeruginosa; assay: Induction of ampC mRNA in ampD::lox and nagZ::lox gene-deficient Pseudomonas aeruginosa PAO1 at 50 ug/ml by RT-PCR relative to wild type Pseudomonas aeruginosa PAO1 (reference value: 1 +/- 0.4 no unit)
# [9] = test system: Pseudomonas aeruginosa; assay: Induction of ampC mRNA in dacB::lox gene-deficient Pseudomonas aeruginosa PAO1 at 50 ug/ml by RT-PCR relative to wild type Pseudomonas aeruginosa PAO1 (reference value: 51 +/- 16 no unit)
# [10] = test system: Pseudomonas aeruginosa; assay: Induction of ampC mRNA in dacB::lox and nagZ::lox gene-deficient Pseudomonas aeruginosa PAO1 at 50 ug/ml by RT-PCR relative to wild type Pseudomonas aeruginosa PAO1 (reference value: 3 +/- 1.9 no unit)
# [11] = test system: Pseudomonas aeruginosa; assay: Induction of ampC mRNA in ampD::lox gene-deficient Pseudomonas aeruginosa PAO1 at 50 ug/ml by RT-PCR relative to wild type Pseudomonas aeruginosa PAO1 (reference value: 1770 +/- 414 no unit) harboring dacB gene
# [12] = test system: Pseudomonas aeruginosa; assay: Induction of ampC mRNA in ampD::lox and nagZ::lox gene-deficient Pseudomonas aeruginosa PAO1 at 50 ug/ml by RT-PCR relative to wild type Pseudomonas aeruginosa PAO1 (reference value: 40 +/- 17 no unit) harboring dacB gene
# [13] = test system: Pseudomonas aeruginosa; assay: Induction of ampC mRNA in ampD::lox, ampDh2::lox and ampDh3::lox gene-deficient Pseudomonas aeruginosa PAO1 at 50 ug/ml by RT-PCR relative to wild type Pseudomonas aeruginosa PAO1 (reference value: 1020 +/- 88 no unit)
# [14] = test system: Pseudomonas aeruginosa; assay: Induction of ampC mRNA in ampD::lox, ampDh2::lox,ampDh3::lox and nagZ::lox gene-deficient Pseudomonas aeruginosa PAO1 at 50 ug/ml by RT-PCR relative to wild type Pseudomonas aeruginosa PAO1 (reference value: 57 +/- 31 no unit)
# [15] = test system: Pseudomonas aeruginosa; assay: Induction of ampC mRNA in ampR::lox gene-deficient Pseudomonas aeruginosa PAO1 at 50 ug/ml by RT-PCR relative to wild type Pseudomonas aeruginosa PAO1 (reference value: 3.8 +/- 0.4 no unit)
# [16] = test system: Pseudomonas aeruginosa; assay: Induction of creD mRNA in Pseudomonas aeruginosa PAO1 at 50 ug/ml by RT-PCR relative to wild type Pseudomonas aeruginosa PAO1 (reference value: 1 no unit)
# [17] = test system: Pseudomonas aeruginosa; assay: Induction of creD mRNA in nagZ::lox gene-deficient Pseudomonas aeruginosa PAO1 at 50 ug/ml by RT-PCR relative to wild type Pseudomonas aeruginosa PAO1 (reference value: 1.1 +/- 0.3 no unit)
# [18] = test system: Pseudomonas aeruginosa; assay: Induction of creD mRNA in ampD::lox gene-deficient Pseudomonas aeruginosa PAO1 at 50 ug/ml by RT-PCR relative to wild type Pseudomonas aeruginosa PAO1 (reference value: 1.1 +/- 0.3 no unit)
# [19] = test system: Pseudomonas aeruginosa; assay: Induction of creD mRNA in ampD::lox and nagZ::lox gene-deficient Pseudomonas aeruginosa PAO1 at 50 ug/ml by RT-PCR relative to wild type Pseudomonas aeruginosa PAO1 (reference value: 2.8 +/- 1.6 no unit)
# [20] = test system: Pseudomonas aeruginosa; assay: Induction of creD mRNA in dacB::lox gene-deficient Pseudomonas aeruginosa PAO1 at 50 ug/ml by RT-PCR relative to wild type Pseudomonas aeruginosa PAO1 (reference value: 83 +/- 7 no unit)
# [21] = test system: Pseudomonas aeruginosa; assay: Induction of creD mRNA in dacB::lox and nagZ::lox gene-deficient Pseudomonas aeruginosa PAO1 at 50 ug/ml by RT-PCR relative to wild type Pseudomonas aeruginosa PAO1 (reference value: 4 +/- 0.8 no unit)
# [22] = test system: Pseudomonas aeruginosa; assay: Induction of creD mRNA in ampD::lox gene-deficient Pseudomonas aeruginosa PAO1 at 50 ug/ml by RT-PCR relative to wild type Pseudomonas aeruginosa PAO1 (reference value: 51 +/- 24 no unit) harboring dacB gene
smiles,measurement,setting,value
CO[C@@]1(NC(=O)Cc2cccs2)C(=O)N2C(C(=O)O)=C(COC(N)=O)CS[C@@H]21 [CEFOXITIN],fold change (FC),[1],418
same,fold change (FC),[2],1.6
same,fold change (FC),[3],1
same,fold change (FC),[4],189
same,fold change (FC),[5],78
same,fold change (FC),[6],469
same,fold change (FC),[7],134
same,fold change (FC),[8],483
same,fold change (FC),[9],232
same,fold change (FC),[10],661
same,fold change (FC),[11],1950
same,fold change (FC),[12],906
same,fold change (FC),[13],1105
same,fold change (FC),[14],905
same,fold change (FC),[15],3.3
same,fold change (FC),[16],24
same,fold change (FC),[17],54
same,fold change (FC),[18],2.7
same,fold change (FC),[19],99
same,fold change (FC),[20],120
same,fold change (FC),[21],95
same,fold change (FC),[22],81
